{"source": "patent US6943190B2", "about": "“Method of using pyruvate and/or its derivatives for the treatment of cytokine-mediated inflammatory conditions” (University of Pittsburgh-of the Commonwealth System of …, priority 2001, dated 2005)", "key": {"[1]": {"tested_on": "HMGB-1", "assay": "Serum HMGB-1 in endotoxemic mice (western blot)", "type": "in vivo, Balb/C mice", "conditions": "for serum HMGB1: pretreatment 40 mg/kg 30 min before LPS, measured 20 hours after onset of endotoxemia", "experimental": "(§1) Endotoxin shock. Mice were injected with endotoxin (Escherichia coli lipopolysaccharide, LPS 0111:B4; Sigma Chemical Co, St. Louis, Mo.) that was dissolved in sterile pyrogen-free saline at stock concentrations of 10 mg/ml. LPS solutions were sonicated for 20 min immediately prior to use for each experiment. Mice received an LD75 dose of LPS (5 mg/kg, i.p.). Blood was collected at different times after LPS administration, allowed to clot for 2 h at room temperature, then centrifuged for 20 min at 1,500 g. Serum samples were stored at […] prior to analysis. Mortality was recorded for up to 3 weeks after injection to ensure that no additional late deaths occurred.\nCytokine measurements. TNF concentration in mouse serum and in conditioned media from RAW 264.7 cell cultures was measured by ELISA (minimum detectable concentration=10 pg/ml). Recombinant mouse TNF standards were obtained from R&D Systems (Inc., Minneapolis, Minn.) and dissolved in 0.1% bovine serum albumin solution (BSA, low endotoxin grade from Sigma Chemical Co., St. Louis, Mo.). Monoclonal antibody to mouse TNF was purchased from Biosource International, Inc., Camarillo, Calif. Human TNF monoclonal antibody, human TNF antiserum and mouse TNF antiserum were prepared and contributed by Dr. Christine Metz. Mouse serum IL-6 and IL-1β levels were measured using ELISA kits (R&D Systems, Inc., Minneapolis, Minn.). HMGB-1 was analyzed by western blot as previously described by Wang et al, 1999. […] Protein was electroblotting to Immun-blot PVDF membrane (Bio-rad, Hercules Calif.) and HMGB-1 was analyzed using polyclonal 241 antibody and secondary anti-rabbit horseradish peroxidase (Amersham, Pitscataway, N.J.). Standard curves were constructed using r-HMGB-1, and the intensity of the 30 kD band analyzed by densitometry. […]\nThe therapeutic efficacy of the delayed administration of ethyl pyruvate after the onset of endotoxemia was assessed. […]"}, "[2]": {"tested_on": "TNF", "assay": "TNF release by LPS-stimulated RAW 264.7 macrophage cultures (ELISA)", "type": "cell-based, murine", "experimental": "(§2) Cell Culture. BALB/c murine macrophage-like RAW 264.7 cells obtained from the American Type Culture Collection (ATCC Number TIB-71, ATCC, Rockville, Mass.) (61), were cultured in RPMI 1640 (Life Technologies, Grand Island, N.Y.) supplemented with 10% heat inactivated fetal bovine serum (Gemini, Calabasas, Calif.), 2 mM glutamine (Cat. # 25030-149, Gibco BRL, Rockville, Mass.) and antibiotic-antimycotic mix (Cat. # 15240-062, Gibco BRL, Rockville, Mass.) in a humidified incubator with 5% CO2. Cells were mechanically removed and resuspended in serum-free Opti-MEM I medium (Life Technology, Grand Island, N.Y.) to perform experiments at 75% confluence.\n(§3) Cytokine measurements. TNF concentration in mouse serum and in conditioned media from RAW 264.7 cell cultures was measured by ELISA (minimum detectable concentration=10 pg/ml). […] Mouse serum IL-6 and IL-1β levels were measured using ELISA kits (R&D Systems, Inc., Minneapolis, Minn.). HMGB-1 was analyzed by western blot as previously described by Wang et al, 1999. […] Protein was electroblotting to Immun-blot PVDF membrane (Bio-rad, Hercules Calif.) and HMGB-1 was analyzed using polyclonal 241 antibody and secondary anti-rabbit horseradish peroxidase (Amersham, Pitscataway, N.J.). Standard curves were constructed using r-HMGB-1, and the intensity of the 30 kD band analyzed by densitometry. […]"}, "[3]": {"tested_on": "IL-1", "assay": "Peak serum IL-1 in endotoxemic mice (ELISA)", "type": "in vivo, Balb/C mice", "conditions": "pretreatment, data not shown", "experimental": "as §1, §3"}, "[4]": {"tested_on": "TNF gene transcript", "assay": "TNF mRNA in LPS-stimulated RAW 264.7 cells (RNase protection assay)", "type": "cell-based, murine", "experimental": "as §2\nTotal RNA extraction and RNase protection assay. […] The levels of TNF and cyclophilin mRNA in RAW cells were measured using an RNase protection assay kit from PharMingen in accordance with the manufacturer's instructions (San Diego, Calif.). […] Molecular weight markers were prepared using pBR-322 plasmid DNA digested with MSP I (New England Bio Labs, Beverly, Mass.) and Klenow end-labeled (Strategene, La Jolla, Calif.) with ^α-32P-dCTP (800 Ci/mmol, Amersham); mRNA levels were measured with an Instantlmager (Packard Instrument Co., Meriden, Conn.).\nTo determine the effect of ethyl pyruvate on TNF synthesis by macrophages, murine macrophage-like RAW 264.7 cells were stimulated with endotoxin, and TNF measured in the conditioned media. […]"}, "[5]": {"tested_on": "TNF", "assay": "Serum TNF in endotoxemic mice (ELISA)", "type": "in vivo, Balb/C mice", "conditions": "2 hours after LPS", "experimental": "as §1, §3"}}, "note": "Like-named read-outs stand apart in the source and are kept apart here."}
{"smiles": "CCOC(=O)C(C)=O", "note": "[ethyl pyruvate]", "values": [{"measurement": "systemic release of HMGB-1 (serum)", "setting": "[1]; delayed treatment beginning 4 hours post-LPS, measured at 20 hours", "value": "significantly attenuated the systemic release of HMGB-1"}, {"measurement": "serum HMGB1", "setting": "[1]", "value": "significantly attenuated"}, {"measurement": "serum HMGB1", "setting": "[1]; listed as Ethyl pyruvate", "value": "significantly inhibits serum HMGB-1 levels"}, {"measurement": "synthesis of TNF at the highest doses tested", "setting": "[2]; LPS-stimulated RAW 264.7 cells, highest doses of ethyl pyruvate", "value": "not completely inhibited"}, {"measurement": "EC50", "setting": "[2]; Mus musculus, RAW264.7, RAW 264.7 cells stimulated with 50 or 100 ng/ml LPS, conditioned media, read-out: concentration that suppressed 50% of the TNF response (EC50)", "value": 3.4, "unit": "mM"}, {"measurement": "peak serum level of IL-1", "setting": "[3]", "value": "attenuated"}, {"measurement": "amount of TNF mRNA / TNF transcription", "setting": "[4]", "value": "prevents LPS-induced transcription of TNF in an ethyl pyruvate concentration dependent fashion"}, {"measurement": "amount of TNF mRNA / TNF transcription", "setting": "[4]; listed as Ethyl pyruvate", "value": "significantly reduced the amount of TNF mRNA"}, {"measurement": "serum TNF", "setting": "[5]; pretreatment 40 mg/kg 30 min before LPS 5 mg/kg i.p., vehicle printed 17+/−4, P<0.05", "value": "39+−6 ng TNF/ml"}, {"measurement": "release of serum TNF (in words)", "setting": "[5]; pretreatment 40 mg/kg", "value": "significantly attenuates the release of serum TNF"}]}
